Data published in patent US6809097B1, “Quinoline derivatives inhibiting the effect of growth factors such as VEGF” (Zeneca Limited, priority 1996, dated 2004).

| melting point [°C] | SMILES |
| --- | --- |
| 300 to 302 | COCCOc1cc2nccc(Nc3cc(O)c(C)cc3F)c2cc1C#N.Cl |
| 230 to 232 | COc1cc2c(Nc3ccc(C)c(OC(C)=O)c3)ccnc2cc1OCc1ccccc1.Cl |
| 312 to 318 | COc1cc2nccc(Nc3cc(O)c(Cl)cc3F)c2cc1OC.Cl |
| 222 to 225 | COc1cc2c(Nc3ccc(Cl)cc3F)ccnc2cc1OCc1ccccc1.Cl |
| > 250 | COc1cc2c(Nc3ccc(Cl)cc3F)ccnc2cc1OCCN(C)C.Cl |
| 280 to 283 | COc1cc2nccc(Nc3cccc(O)c3)c2cc1OC.Cl |
| > 280 | COc1cc2nccc(Nc3cc(O)c(C)cc3F)c2cc1OC.Cl |
| 275 to 278 | COCCOc1cc2nccc(Nc3ccc(C)c(O)c3)c2cc1C#N.Cl |
| 278 to 281 | COc1cc2nccc(Nc3cc(O)c(C)cc3F)c2cc1C#N.Cl |
| 247 to 250 | COCCOc1cc2nccc(Nc3ccc(Cl)cc3F)c2cc1C#N.Cl |
| 210 to 217 | COc1cc2c(Oc3cc(O)c(C)cc3F)ccnc2cc1OCCCN1CCOCC1 [Example 3, 4-(2-fluoro-5-hydroxy-4-methylphenoxy)-6-methoxy-7-(3-morpholinopropoxy)quinoline] |
| 140 | COc1cc2nccc(Oc3cccc(O)c3)c2cc1OC [Example 26, 6,7-dimethoxy-4-(3-hydroxyphenoxy)quinoline] |
| 159 to 163 | COCCOc1cc2nccc(Oc3cccc(O)c3)c2cc1C#N [Example 50, 6-cyano-4-(3-hydroxyphenoxy)-7-(2-methoxyethoxy)quinoline] |
